Where two headings read alike, the source gives them in different places.
Columns and labels:
[1] = target: human CB1 receptor (hCB1) (Homo sapiens, UniProt P21554); test: cell-based; format: cell-based
Experimental: (§1) The ability of compounds to act as agonists or inverse agonists at human CB2 and CB1 receptors (hCB2, hCB1, respectively) and at the rat CB2 receptor (rCB2) was determined by measuring changes in intracellular cAMP levels. Chinese Hamster Ovary (CHO-K1) cell lines stably expressing hCB2 (Genebank: X74328) or hCB1 (Genebank: X54937) were purchased from Euroscreen (Gosselies, Belgium). The rat CB2 receptor was expressed from genomic DNA (provided by M. Abood, California Pacific Medical Center) in CHO-K1 cells from expression plasmid vector, pcDNA3.1.
(§2) Cell lines were grown in suspension in EX-CELL 302 CHO Serum-free medium (Sigma, cat #14324C) supplemented with 1% Fetal Bovine Serum, glutamine and non-essential amino-acids under 0.4 mg/mL G418 selection.
(§3) Receptor mediated responses were determined by measuring changes in intracellular cAMP using LANCE cAMP detection kit (cat #AD0264, Perkin Elmer, Wellesley, Mass.) based on time-resolved fluorescence resonance energy transfer (TR-FRET). Changes in cAMP were determined in cells pre-incubated with IBMX (isobutyl methylxanthine) and prestimulated with NKH-477 (a water soluble forskolin derivative, cat #1603, Tocris, Ellisville, Mo.) to increase basal cAMP levels as detailed below.
(§4) On the day of the experiment, cells were spun at low speed for 5 min at room temperature. The supernatant was removed and cells were resuspended in stimulation buffer (Hanks Buffered Salt Solution/5 mM HEPES, containing 0.5 mM IBMX (cat #17018, Sigma) and 0.02% BSA (Perkin-Elmer, cat #CR84-100)). Cell clumps were removed by filtering through cell strainer 40 μm (BD Falcon, Discovery Labware, Bedford, Mass.) and diluted to 2×10^5 cells/mL. Antibody supplied with the LANCE cAMP immunoassay kit was then added according to the manufacturer's instructions. An aliquot of cells was taken for un-induced controls. To the remaining cells was added NKH-477 (a water soluble forskolin derivative, Tocris cat #1603) to a final concentration of 2-8 μM. Cells were then incubated for 30 min at room temperature prior to adding to Proxiplates containing test compounds (final DMSO concentration was less than 0.5%) with a Multidrop bulk dispenser, followed by a sixty minute incubation at room temperature. The response was stopped by addition of the detection mix supplied with the LANCE kit. The reagents were allowed to equilibrate for three hours prior to reading on an Envision multi-mode detector (Perkin-Elmer). TR-FRET was measured using a 330-380 nm excitation filter, a 665 nm emission filter, dichroic mirror 380 nm and Z=1 mm. Cyclic AMP concentrations in each well were back-calculated from a cAMP standard curve run concurrently during each assay. Each plate contained 16 wells of forskolin stimulated cells and 16 wells of forskolin plus CP55,940-treated cells. Cells were treated with 1 μM CP55,940 (Tocris cat. #0949). Concentrations of cAMP were expressed as a percent of the difference of these two groups of wells. Concentration-response data including EC50 (the concentration of compound producing 50% of the maximal response) and intrinsic activity (the percent maximal activation compared to full activation by CP55,940) were determined using a four-parameter non-linear regression algorithm (Xlfit equation 251, IDBS).

rat CB2 receptor (rCB2) = target: T1, rat CB2 receptor (rCB2) (Rattus norvegicus, UniProt Q9QZN9); test: cell-based; format: cell-based; conditions: for +/− RCB2: agonist or inverse agonist at rCB2
T1 sequence (Q9QZN9 1-360): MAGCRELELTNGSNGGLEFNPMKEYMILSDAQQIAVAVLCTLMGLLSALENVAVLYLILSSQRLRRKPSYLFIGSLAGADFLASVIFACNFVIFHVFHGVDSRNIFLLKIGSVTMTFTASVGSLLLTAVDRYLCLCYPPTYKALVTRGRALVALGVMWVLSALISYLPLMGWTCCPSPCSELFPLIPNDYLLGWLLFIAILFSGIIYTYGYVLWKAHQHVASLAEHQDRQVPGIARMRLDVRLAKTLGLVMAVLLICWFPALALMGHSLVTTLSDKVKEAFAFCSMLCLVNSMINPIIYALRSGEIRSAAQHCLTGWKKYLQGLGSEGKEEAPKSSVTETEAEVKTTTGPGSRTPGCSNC
Experimental: as §1, §2, §3, §4

[2] = groups >100 nM-10 μM and >10 μM, cAMP, CHO-K1 hCB1, read-out: EC50 HCB1

Sequence of human CB1 receptor (hCB1) (P21554 whole entry): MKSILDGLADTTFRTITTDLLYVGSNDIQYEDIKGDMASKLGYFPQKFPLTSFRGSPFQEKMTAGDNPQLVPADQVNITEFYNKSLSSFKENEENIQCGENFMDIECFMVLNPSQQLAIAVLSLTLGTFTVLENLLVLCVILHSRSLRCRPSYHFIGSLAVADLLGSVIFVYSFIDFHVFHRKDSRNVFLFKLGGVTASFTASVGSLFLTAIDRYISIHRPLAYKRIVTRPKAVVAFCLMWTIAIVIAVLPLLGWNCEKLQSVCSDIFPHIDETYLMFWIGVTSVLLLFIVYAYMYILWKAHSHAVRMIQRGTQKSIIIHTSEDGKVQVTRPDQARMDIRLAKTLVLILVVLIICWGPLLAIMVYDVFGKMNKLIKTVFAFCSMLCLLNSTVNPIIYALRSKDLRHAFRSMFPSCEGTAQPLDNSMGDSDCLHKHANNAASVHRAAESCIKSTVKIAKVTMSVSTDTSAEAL

Row | Compound | EC50 [1] [nM] | other results
1 | O=C(c1nc(-c2ccccc2)n2c1CNCC2)N1CCOCC1 [Compound 25, morpholino(3-phenyl-5,6,7,8-tetrahydroimidazo[1,5-a]pyrazin-1-yl)methanone] |  | EC50 [1, 2]: > 10000 nM; EC50 (rat CB2 receptor (rCB2); groups >100 nM-10 μM and >10 μM, cAMP, CHO-K1 rCB2, read-out: EC50 RCB2): > 10000 nM
2 | CNC(=O)[C@@H](NC(=O)c1nc(CCC2CC2)n2c1CN(C)CCC2)C(C)(C)C [Compound 490, (S)-3-(2-cyclopropylethyl)-N-(3,3-dimethyl-1-(methylamino)-1-oxobutan-2-yl)-8-methyl-6,7,8,9-tetrahydro-5H-imidazo[1,5-a][1,4]diazepine-1-carboxamide] | > 10000 | +/− RCB2 (rat CB2 receptor (rCB2)): +
3 | CNC(=O)[C@@H](NC(=O)c1nc(-c2ccc(F)c(C)c2)n2c1CNCC2)C(C)(C)C [Compound 7, (S)-N-(3,3-dimethyl-1-(methylamino)-1-oxobutan-2-yl)-3-(4-fluoro-3-methylphenyl)-5,6,7,8-tetrahydroimidazo[1,5-a]pyrazine-1-carboxamide] | > 10000 | +/− RCB2 (rat CB2 receptor (rCB2)): −
4 | O=C(Nc1ccccc1)c1nc(-c2ccccc2)n2c1CN(CCO)CC2 [Compound 151, 7-(2-hydroxyethyl)-N,3-diphenyl-5,6,7,8-tetrahydroimidazo[1,5-a]pyrazine-1-carboxamide] |  | EC50 [1, 2]: > 10000 nM; +/− RCB2 (rat CB2 receptor (rCB2)): −
5 | CNC(=O)[C@@H](NC(=O)c1nc(C2=CCC(C)CC2)n2c1CN(C)CCC2)C(C)(C)C (stereo partly drawn) [Compound 449, N-((S)-3,3-dimethyl-1-(methylamino)-1-oxobutan-2-yl)-8-methyl-3-(4-methylcyclohex-1-enyl)-6,7,8,9-tetrahydro-5H-imidazo[1,5-a][1,4]diazepine-1-carboxamide] |  | +/− HCB1 ([1]; agonist or inverse agonist at hCB1): +; +/− RCB2 (rat CB2 receptor (rCB2)): +
6 | CNC(=O)[C@@H](NC(=O)c1nc(C2CCCC2)n2c1CN(C)CCC2)C(C)(C)C [Compound 497, (S)-3-cyclopentyl-N-(3,3-dimethyl-1-(methylamino)-1-oxobutan-2-yl)-8-methyl-6,7,8,9-tetrahydro-5H-imidazo[1,5-a][1,4]diazepine-1-carboxamide] |  | +/− RCB2 (rat CB2 receptor (rCB2)): +
7 | CC(C)(C)[C@@H](CO)NC(=O)c1nc(-c2ccccc2)n2c1CN(CC1CC1)CC2 [Compound 84, (S)-7-(cyclopropylmethyl)-N-(1-hydroxy-3,3-dimethylbutan-2-yl)-3-phenyl-5,6,7,8-tetrahydroimidazo[1,5-a]pyrazine-1-carboxamide] | > 10000 | 
8 | CNC(=O)[C@@H](NC(=O)c1nc(-c2ccsc2)n2c1CN(S(=O)(=O)c1ccc(F)cc1)CC2)C(C)(C)C [Compound 109, (S)-N-(3,3-dimethyl-1-(methylamino)-1-oxobutan-2-yl)-7-(4-fluorophenylsulfonyl)-3-(thiophen-3-yl)-5,6,7,8-tetrahydroimidazo[1,5-a]pyrazine-1-carboxamide] | > 10000 | 
9 | CNC(=O)[C@@H](NC(=O)c1nc(-c2ccsc2)n2c1CN(CC1CC1)CC2)C(C)(C)C [Compound 74, (S)-7-(cyclopropylmethyl)-N-(3,3-dimethyl-1-(methylamino)-1-oxobutan-2-yl)-3-(thiophen-3-yl)-5,6,7,8-tetrahydroimidazo[1,5-a]pyrazine-1-carboxamide] | > 10000 | 
10 | CNC(=O)[C@@H](NC(=O)c1nc(Br)n2c1CN(C)CCC2)C(C)(C)C [Compound 324, (S)-3-bromo-N-(3,3-dimethyl-1-(methylamino)-1-oxobutan-2-yl)-8-methyl-6,7,8,9-tetrahydro-5H-imidazo[1,5-a][1,4]diazepine-1-carboxamide] | > 10000 | 
11 | CNC(=O)[C@@H](NC(=O)c1nc(-c2csc3ccccc23)n2c1CNCC2)C(C)(C)C [Compound 20, (S)-3-(benzo[b]thiophen-3-yl)-N-(3,3-dimethyl-1-(methylamino)-1-oxobutan-2-yl)-5,6,7,8-tetrahydroimidazo[1,5-a]pyrazine-1-carboxamide] | > 10000 | 
12 | CNC(=O)[C@@H](NC(=O)c1nc(C2=CCCCO2)n2c1CN(C)CCC2)C(C)(C)C [Compound 452, (S)-3-(3,4-dihydro-2H-pyran-6-yl)-N-(3,3-dimethyl-1-(metylamino)-1-oxobutan-2-yl)-8-methyl-6,7,8,9-tetrahydro-5H-imidazo[1,5-a][1,4]diazepine-1-carboxamide] |  | +/− RCB2 (rat CB2 receptor (rCB2)): +
13 | CNC(=O)[C@@H](NC(=O)c1nc(-c2ccsc2)n2c1CN(C)CC2)C(C)(C)C [Compound 73, (S)-N-(3,3-dimethyl-1-(methylamino)-1-oxobutan-2-yl)-7-methyl-3-(thiophen-3-yl)-5,6,7,8-tetrahydroimidazo[1,5-a]pyrazine-1-carboxamide] | > 10000 | 
14 | CNC(=O)[C@@H](NC(=O)c1nc(Br)n2c1CN(C)CC2)C(C)(C)C [Compound 203, (S)-3-bromo-N-(3,3-dimethyl-1-(methylamino)-1-oxobutan-2-yl)-7-methyl-5,6,7,8-tetrahydroimidazo[1,5-a]pyrazine-1-carboxamide] | > 10000 | 
15 | CNC(=O)[C@@H](NC(=O)c1nc(-c2ccccc2)n2c1CN(S(=O)(=O)c1ccc(C#N)cc1)CC2)C(C)(C)C [Compound 108, (S)-7-(4-cyanophenylsulfonyl)-N-(3,3-dimethyl-1-(methylamino)-1-oxobutan-2-yl)-3-phenyl-5,6,7,8-tetrahydroimidazo[1,5-a]pyrazine-1-carboxamide] | > 10000 | 
16 | CNC(=O)[C@@H](NC(=O)c1nc(-c2ccccc2)n2c1CN(S(=O)(=O)c1ccc(C(F)(F)F)cc1)CC2)C(C)(C)C [Compound 107, (S)-N-(3,3-dimethyl-1-(methylamino)-1-oxobutan-2-yl)-3-phenyl-7-(4-(trifluoromethyl)phenylsulfonyl)-5,6,7,8-tetrahydroimidazo[1,5-a]pyrazine-1-carboxamide] | > 10000 | 
17 | CC(C)(CO)CNC(=O)c1nc(-c2ccccc2)n2c1CN(CC1CC1)CC2 [Compound 83, 7-(cyclopropylmethyl)-N-(3-hydroxy-2,2-dimethylpropyl)-3-phenyl-5,6,7,8-tetrahydroimidazo[1,5-a]pyrazine-1-carboxamide] |  | EC50 [1, 2]: > 10000 nM
18 | CNC(=O)[C@H](C)NC(=O)c1nc(-c2ccccc2)n2c1CN(C)CC2 [Compound 78, (S)-7-methyl-N-(1-(methylamino)-1-oxopropan-2-yl)-3-phenyl-5,6,7,8-tetrahydroimidazo[1,5-a]pyrazine-1-carboxamide] |  | EC50 [1, 2]: > 10000 nM
19 | CNC(=O)[C@@H](NC(=O)c1nc(-c2cscc2C)n2c1CN(C)CC2)C(C)(C)C [Compound 81, (S)-N-(3,3-dimethyl-1-(methylamino)-1-oxobutan-2-yl)-7-methyl-3-(4-methylthiophen-3-yl)-5,6,7,8-tetrahydroimidazo[1,5-a]pyrazine-1-carboxamide] | > 10000 | 
20 | CNC(=O)[C@@H](NC(=O)c1nc(-c2ccccc2)n2c1C[N+](C)(C)CC2)C(C)(C)C [Compound 311, (S)-1-(3,3-dimethyl-1-(methylamino)-1-oxobutan-2-ylcarbamoyl)-7,7-dimethyl-3-phenyl-5,6,7,8-tetrahydroimidazo[1,5-a]pyrazin-7-ium iodide] | > 10000 | 
21 | CNC(=O)[C@@H](NC(=O)c1nc(-c2ccc(Cl)cc2F)n2c1CN(C1CCNCC1)CCC2)C(C)(C)C [Compound 526, (S)-3-(4-chloro-2-fluorophenyl)-N-(3,3-dimethyl-1-(methylamino)-1-oxobutan-2-yl)-8-(piperidin-4-yl)-6,7,8,9-tetrahydro-5H-imidazo[1,5-a][1,4]diazepine-1-carboxamide] | > 10000 | 

Reference: US7517874B2 (priority 2007, dated 2009)
